Test results as given in patent publication US12729225B2, “Non-canonical SWI/SNF complex and uses thereof” (Dana-Farber Cancer Institute, Inc., priority 2018, dated 2026).
“And” between values parts separate entries of the source, which are not always exact repeats. Equal values may be shown once. “Also recorded” adds a separate entry of the source.

How the values were obtained:
[1] = system: TTC1240 malignant rhabdoid tumor cells; experiment: RNA-seq gene expression in TTC1240 cells; assay type: cell-based, human; details: TTC1240, 7 days of 250 nM dBRD9
Procedure: (§1) RNA was collected from 2 million cells per condition, in biological duplicate, using the RNeasy® Mini Kit (QIAGEN) according to manufacturer's protocol.
(§2) Library preparation and sequencing of ChIP DNA and RNA was performed by the Molecular Biology Core Facilities at the Dana-Farber Cancer Institute (75 bp single end on Illuminia Nextseq 500).
(§3) RNA-seq data reads were mapped using default parameters to hg19 using STAR (Dobin, et al. (2013) Bioinformatics 29:15-21) version 2.5.2a.
(§4) RPKM values were calculated using GFOLD version 1.1.4 (Feng et al. (2012) Bioinformatics 28:2782-2788). Unless otherwise noted, log 2 fold change and Bonferri-corrected p values were generated using DESEQ2 v1.16.1, with reads mapped using RSUBREAD (Liao et al. (2013) Nucleic Acids Res. 41:e108) v1.26.1. […] All RNA-seq experiments were performed in biological replicate. Quality control metrics are available in Table 7.
Genes associated with MRT superenhancers were downloaded from Chun et al. (Chun et al. (2016) Cancer Cell 29:394-406). Differential expression files of genes between MRT and normal tissues were downloaded from Chun et al., genes that were overexpressed in MRT with Bonferroni-adjusted p-value<0.01 were considered overexpressed in MRT.

[2] = system: ESX epithelioid sarcoma (SMARCB1-intact) cells; experiment: Proliferation curves (cell counts) in ESX cells; assay type: cell-based, human; details: dBRD9 250 nM vs DMSO
Procedure: (§5) HEK-293T, G401, TTC1240, ESX, IMR-90, BJ Fibroblast, CRL7250, and NCIH-1437 cells were grown in DMEM (Gibco®) supplemented with 10% FBS, 1% GlutaMAX™ (Gibco®), and 1% penicillin-streptomycin (Gibco®). ES-2 cells were grown in McCoy's 5A (Gibco®) supplemented with 10% FBS, 1% GlutaMA™ (Gibco®), and 1% penicillin-streptomycin (Gibco®). EoL-1 and MOLM-13 were grown in RPMI (Gibco) supplemented with 10% FBS, 1% GlutaMAX™ (Gibco®), and 1% penicillin-streptomycin (Gibco®). RD were cultured in DMEM (Gibco®) supplemented with 10% FBS. HCT116 were grown in McCoy's 5A (Gibco®) supplemented with 10% FBS. Calu-6 were grown in EMEM (ATCC® 30-2003) supplemented with 10% FBS. SYO-1 was grown in DMEM without sodium pyruvate (Gibco®) supplemented with 10% FBS, 1% GlutaMAX™ (Gibco®), and 1% penicillin-streptomycin (Gibco®).
(§6) 25,000-40,000 cells were plated per well of 12 well plates, or 50,000-60,000 per 10 cm plate, depending on cell line. Cell counts were performed in biological triplicate using a Vi-CELL™ XR Cell Counter (Beckman Coulter) on days indicated.

[3] = system: CRL7250 human fibroblast cells; experiment: RNA-seq of SS18-SSX-mediated gene activation in CRL7250 fibroblasts; assay type: cell-based; details: CRL7250 fibroblasts expressing V5-SS18-SSX1, with dBRD9
Procedure: as §1, §2, §3, §4
(§7) The input for Gene Set Enrichment Analysis (GSEA) (Subramanian et al. (2005) Proc. Nat. Acad. Sci. U.S.A 102:15545-15550) was created by calculating the log 2 fold change between the mean RPKM of the replicates in each condition+1. […] GSEA Preranked was run over these files with default settings.

[4] = system: SYO-1 synovial sarcoma cells; experiment: Proliferation curves (cell counts, Vi-CELL XR) in SYO-1 cells; assay type: cell-based, human; details: for cell count: three replicates
Procedure: as §5
ShRNA or gene delivery vectors, psPAX2, and pMD2.g were transfected into […] cells at a ratio of 4:3:1 using PEI (Polysciences, Inc.). Media was filtered through 0.4 micron filters 72 h post transfection and lentiviral particles were concentrated at 20,000 rpm for 2.5 h at 4° C. Lentiviral particles were resuspended in 200 μl PBS and cells were transduced using 1:1000 polybrene (Santa Cruz Biotechnology, cat. sc-134220). Two days post-infection, cells were selected with 2 μg/mL puromycin or 10 μg/mL blasticidin.
as §6

G401 MRT cells = experiment: Proliferation curves (cell counts) in G401 cells; assay type: cell-based, human; details: for Proliferation curve data for FIG. 5K (G401): three replicates
Procedure: as §5, §6

[5] = system: TTC1240 malignant rhabdoid tumor cells; experiment: Proliferation curves (cell counts) in TTC1240 cells; assay type: cell-based, human; details: for Proliferation curve data for FIG. 6H (TTC1240): three replicates
Procedure: as §5, §6

MOLM-13 cells = experiment: RNA-seq gene expression in MOLM-13 cells; assay type: cell-based, human; details: MOLM-13 (BAF-intact), 6 days of dBRD9
Procedure: as §1, §2, §3, §4

SMARCA4 [6] = experiment: ChIP-seq SMARCA4 occupancy in TTC1240 cells (spike-in normalized, DiffBind); assay type: cell-based, human; details: TTC1240, dBRD9 250 nM vs DMSO
Procedure: (§8) Cells were fixed in 1% formaldehyde (Sigma Aldrich, F8775) for 10 min at 37° C. and quenched with 125 mM glycine for 5 min at 37° C. Cells were subsequently washed with cold PBS and stored at −80° C. until use. 10M cells per ChTP were used for EoL-1, MOLM-13, and Jurkat cell lines, and 5M cells per ChIP were used for SYO-1 and TTC1240 cell lines. Nuclei were extracted and chromatin was sonicated using the adaptive focused acoustics technology with a Covaris sonicator. Sonicated chromatin was used in immunoprecipitation reactions with indicated antibodies (Table 5) overnight followed by capture using Protein G Dynabeads (Thermo Fisher). […]
(§9) For alignment of ChIP-seq data, Bowtie2, version 2.1.0 (Langmead & Salzberg (2012) Nat. Methods 9:357-359) was used to map reads to the hg19 human reference genome, using the parameter −k l.
For spike-in normalization, Drosophila DNA was aligned to the dm3 genome using Bowtie2 version 2.1.0 with the parameter −k l. Duplicated reads were removed using samtools rmdup with the −b option. (SAMtools v1.3.1) As per manufacturer instructions, normalization ratios were calculated using the ratio of the total number of non-redundant mapped reads in each sample in comparison to the sample with the fewest non-redundant mapped reads. […]

SMARCA4 [7] = experiment: ChIP-seq SMARCA4 occupancy in MOLM-13 cells; assay type: cell-based, human; details: MOLM13 (BAF-intact), dBRD9
Procedure: as §8, with “Fisher). For ChIP-seq using spike-in chromatin, 15 ng of spike-in Drosophila chromatin (Active Motif, cat #530830) was added to each sample with 2 μg of spike-in antibody (Active Motif, cat #61686).” for “Fisher).”
as §9
MACS2 (Zhang et al. (2008) Genome Biol. 9:R137) version 2.1.0 was used to call peaks against input with a cutoff of q=0.001. […] For TTC1240 SMARCA4 tracks shown, the bedGraph file values were multiplied by the spike-in normalization ratios calculated as described above.

[8] = system: SYO-1 synovial sarcoma cells; experiment: RNA-seq gene expression profiling in SYO-1 cells; assay type: cell-based, human; details: SYO-1, dBRD9 (6 day)
Procedure: as §1, §2, §3, §4, §7

## COc1cc(-c2cn(C)c(=O)c3cnccc23)cc(OC)c1CN(C)CC(=O)NCCOCCOCCNc1cccc2c1C(=O)N(C1CCC(=O)NC1=O)C2=O (centres unmarked) [dBRD9, 2-((2,6-dimethoxy-4-(2-methyl-1-oxo-1,2-dihydro-2,7-naphthyridin-4-yl)benzyl)(methyl)amino)-N-(2-(2-(2-((2-(2,6-dioxopiperidin-3-yl)-1,3-dioxoisoindolin-4-yl)amino)ethoxy)ethoxy)ethyl) acetamide]
[1]
  expression of JUND, VGF, ID3, HOXC9, CREB3L1: significantly downregulated
[2]
  reduced proliferation upon dBRD9 treatment: did not
[3]
  SS18-SSX-mediated gene activation: did not attenuate
[4]; Day 0, second block
  cell count: 0.05
[4]; Day 1, first block
  cell count: 0.03089 and 0.03603 and 0.03282
[4]; Day 4, first block
  cell count: 0.1506 and 0.1319 and 0.1377
[4]; Day 4, second block
  cell count: 0.171 and 0.18 and 0.216
[4]; Day 6, first block
  cell count: 0.2722 and 0.3153 and 0.2555
[4]; Day 7, second block
  cell count: 0.36 (2×) and 0.42
[4]; Day 8, first block
  cell count: 0.5521 and 0.5701 and 0.5147
[4]; Day 10, second block
  cell count: 1.17 and 1.38 and 1.14
[4]; Day 13, second block
  cell count: 2.3 and 2.21 and 2.13
[4]; SYO-1, dBRD9 500 nM (FIG. 6F) vs DMSO
  cell proliferation upon dBRD9 treatment: attenuation of cell proliferation; also recorded: proliferative attenuation
G401 MRT cells; Day 1, first block
  Proliferation curve data for FIG. 5K (G401): 0.04568 and 0.02188 and 0.02252
G401 MRT cells; Day 1, second block
  Proliferation curve data for FIG. 5K (G401): 0.1114 and 0.1126 and 0.1094
G401 MRT cells; Day 3, first block
  Proliferation curve data for FIG. 5K (G401): 0.1287 (2×) and 0.1558
G401 MRT cells; Day 3, second block
  Proliferation curve data for FIG. 5K (G401): 0.48 and 0.5096 and 0.442
G401 MRT cells; Day 5, first block
  Proliferation curve data for FIG. 5K (G401): 0.453 and 0.5533 and 0.4292
G401 MRT cells; Day 5, second block
  Proliferation curve data for FIG. 5K (G401): 1.005 and 1.058 and 0.9696
G401 MRT cells; Day 7, first block
  Proliferation curve data for FIG. 5K (G401): 0.7669 and 0.9773 and 0.8281
G401 MRT cells; Day 7, second block
  Proliferation curve data for FIG. 5K (G401): 1.468 and 1.621 and 1.556
G401 MRT cells; G401 (SMARCB1-deficient MRT), dBRD9 250 nM vs DMSO
  proliferation upon dBRD9 treatment: reduced proliferation
[5]; Day 1, first block
  Proliferation curve data for FIG. 6H (TTC1240): 0.01352 and 0.01738 and 0.01416
[5]; Day 1, second block
  Proliferation curve data for FIG. 6H (TTC1240): 0.05469 (2×) and 0.03282
[5]; Day 3, first block
  Proliferation curve data for FIG. 6H (TTC1240): 0.03024 and 0.04118 and 0.0296
[5]; Day 3, second block
  Proliferation curve data for FIG. 6H (TTC1240): 0.2709 and 0.2793 and 0.2619
[5]; Day 5, first block
  Proliferation curve data for FIG. 6H (TTC1240): 0.05791 and 0.06311 and 0.0534
[5]; Day 5, second block
  Proliferation curve data for FIG. 6H (TTC1240): 0.9207 and 0.9419 and 0.9374
[5]; Day 7, first block
  Proliferation curve data for FIG. 6H (TTC1240): 0.1853 and 0.2336 and 0.1628
[5]; Day 7, second block
  Proliferation curve data for FIG. 6H (TTC1240): 2.184 and 2.334 and 2.133
[5]; TTC1240 (SMARCB1-deficient MRT), dBRD9 250 nM vs DMSO
  proliferation upon dBRD9 treatment: reduced proliferation
MOLM-13 cells
  preferential downregulation of genes enriched for dependencies (CERES): did not result in preferential downregulation
SMARCA4 [6]
  SMARCA4 occupancy (ChIP-seq): significant decrease
SMARCA4 [7]
  loss in SMARCA4 occupancy (ChIP-seq): did not exhibit similar loss
[8]
  expression of genes closest to fusion-dependent sites: did not change
